According to US12435308B2, “Immunomodulation by amniotic fluid mesenchymal stem cells” (Amniotics AB, priority 2020, dated 2025):

Experiments:
[1] = system: human PBMCs activated with anti-CD3/anti-CD28; assay: PBMC:MSC co-culture ex vivo assay, FACS analysis (cell composition)
Protocol: (§1) For ex vivo analysis, freshly isolated human PBMCs, pooled from three donors, were activated with anti-CD3/anti-CD28 at 10 μg/ml and 5 μg/ml respectively in presence of MSCs ex vivo for 24-72 hours. Following activation, cells were analyzed for effects on cellular composition and cell proliferation using CFSE. In addition, supernatants were analyzed for cytokine levels using Luminex.
(§2) In this example, Peripheral Blood Mononuclear Cells (PBMCs) were isolated from leucocyte concentrate from three different donors (acquired from Blodcentralen, Lunds Universitetssjukhus, Lund, Sweden) through gradient centrifugation using Ficoll. Red blood cells (RBCs) were lysed using lysis buffer (3 min, RT), cells were washed and the isolated PBMCs were pooled. Cell concentration was determined using a Scepter cell counter (Millipore Merck, MA, USA). Cells were diluted to 1×10^7 cells/ml in PBS. Pooled PBMCs were split into 2 different tubes. Pool one was stained with CFSE at 5 μM for 5 minutes (dark, RT). CFSE stained cells were washed with an equal volume of FBS to stop the reaction and washed again with PBS. Pool 2 was left in PBS.
(§3) All cells (PBMCs and MSCs) were diluted in two different cell culture media (M3 and M4) at 2*10^6 cells/ml. Media was supplemented with anti-CD28 at 5 μg/ml. Cells were added to anti-CD3 (10 μg/ml) coated U bottom cell culture plates according to layout below, 200 μl/well in different PBMC:MSC ratios (1:10, 1:5, 1:2.5, 1:0 and 0:1).
(§4) Included were also controls (stimulated and unstimulated PBMCs) and two reference drugs, e.g., cyclosporine (CsA) and Prednisolone. When plating controls, cells were spun down and diluted in media 3 or 4 at 4*10^6 cells/ml. 100 μl PBMCs were added per well. CsA was added at a final concentration of 10 μg/ml and Prednisolone was added at a final concentration of 125 nM. Medium was added to unstimulated control wells. Control cells (AD-MSC) were also analyzed. Cells were incubated for 24-72 hours at 37° C., 5% CO2.
Following 24 hours of incubation, cells in FACS/Luminex plates were stained with CD73, CD4, CD8, CD80, CD206, CD163 and PD-1. Briefly, cells were transferred to V bottom plates and centrifuged at 360×g for 2 min. Supernatant was transferred to a storage plate and put in −20° C. until analysis using Luminex. Cells were washed in PBS, centrifuged at 360×g for 2 min at 4° C. Supernatant was flicked off and surface markers were added. Cells were incubated at +4° C. for 20 minutes (dark). After incubation, cells were washed 1× in PBS, centrifuged at 360×g for 2 min at 4° C. Cells were resuspended in PBS and analyzed using the Attune Nxt flow cytometer. Compensation was performed using beads—AbC Total Compensation capture beads and negative beads. Since compensation was done using beads, FSC and SSC were changed before analyzing samples and adjusted to suit cells.

[2] = system: human PBMCs activated with anti-CD3/anti-CD28; assay: PBMC:MSC co-culture ex vivo assay, FACS analysis (CFSE proliferation)
Protocol: as §1, §2, §3, §4
To continue with this example, after 72 hours of incubation, CFSE stained cells were stained with CD4, CD8, CD80, CD206 and CD163. Briefly, cells were transferred to V bottom plates, centrifuged at 360×g for 2 min. Cells were washed in PBS, centrifuged at 360×g for 2 min at 4° C. Supernatant was flicked off and surface markers were added. Cells were incubated at +4° C. for 20 minutes. After incubation, cells were washed 1× in PBS, centrifuged at 360×g for 2 min at 4° C. Cells were resuspended in PBS and analyzed using flow cytometry. Compensation was performed using beads—AbC Total Compensation capture beads and negative beads. Since compensation was done using beads, FSC and SSC were changed before analyzing samples and adjusted to suit cells.
The inhibitory effect was calculated according to the two formulas below: […]

[3] = CFSE plates, 72 hours of incubation

C[C@]12C=CC(=O)C=C1CC[C@@H]1[C@@H]2[C@@H](O)C[C@@]2(C)[C@H]1CC[C@]2(O)C(=O)CO [Prednisolone]
% cytotoxic T cells (CD8+ lymphocytes) [1]: lower levels
expression level of CD73+M1 ([1]; 24 hours of incubation): lower expression level
expression level of CD73+M2 ([1]; 24 hours of incubation): lower expression level
% T helper cells (CD4+ lymphocytes) ([1]; 24 hours of incubation, versus control): higher levels
macrophage polarization (shift towards M2) ([1]; assay controls, cell composition): shift towards M2
effect on cytotoxic T cells [2]: no effect
effect on M1 expression level [2, 3]: no effect
effect on M2 expression level [2, 3]: no effect
effect on T helper cells [2, 3]: no effect
